Tests used:
[1] = test system: HT29 colon cancer cells; assay: Cellular proliferation and viability of HT29 colon cancer cells; assay type: cell-based, human
Protocol: Cell Culture Conditions. Human HT 29 colon cancer cells were purchased from the American Type Culture Collection. Cells were maintained in Dulbecco's Modified Eagle's Medium (DME) supplemented with 5% heat-inactivated fetal bovine serum, 2 mM glutamine, and antibiotics (DME/5%). All cell lines were incubated in a humidified 5% CO2/air environment. They were maintained at 37° C. in 5% CO2 covered in aluminum foil to prevent exposure to the light. A total of 1×10^6 cells were incubated per flask and allowed to attach overnight. Media was changed every third day. Cell counts were performed on a Coulter Counter following detachment of cells by standard trypsinization procedures. […] The period of exposure was followed by incubation in the absence of biliverdine. Cell numbers were monitored until proliferation resumed. The production of CEA and alkaline phosphatase was measured as described below.
The HT29 colon cancer cells were incubated with different concentrations of biliverdine and their response studied to identify the concentration ranges required to elicit a biological and/or a toxicological response (Table III).

[2] = test system: CEA content of HT 29 colon cancer cells; assay: CEA production by HT 29 cells (ELISA/IMx); assay type: cell-based, human
Protocol: Expression of differentiation markers. Carcinoembryogenic antigen in cell supernatants collected each three days was assayed by standard ELISA determinations using an IMX assay for quantitative measurement of the antigen. Cellular triacyl glycerol content was measured spectrophotometrically by enzymatic hydrolysis and analysis of the amount of glycerol released using a standard assay, Triglyceride (INT) 10 (Sigma Diagnostics). Cellular alkaline phosphatase activity was determined by measuring the fluorescence change induced by the hydrolysis of 4-methylumbelliferylphosphate. The fluorescence is detected at 450 nm with an excitation of 365 nm, using a Jobin Ivon-Spex Fluoro Max-2 fluorimeter. The alkaline phosphatase activity detected was expressed in units of μmol/mg protein/min.
The effects of biliverdine on cell proliferation and production of two differentiation markers, CEA and alkaline phosphatase activity, were analyzed, CEA was assayed by standard ELISA determinations while alkaline phosphatase activity was determined by measuring the fluorescence change induced by the hydrolysis of phosphate from 4-methylumbelliferylphosphate as follows. To measure CEA production, cell supernatants were collected at the first cycle of change of media (third day) and on day 12. […] This was diluted 1:1 and assayed for CEA using an Imx assay for quantitive measurement of the antigen. […]

[3] = test system: HT 29 Cancer Cells; assay: Distribution of cell cycle stages of HT 29 cancer cells; assay type: cell-based, human
Description: The presence of the CDK-inhibitors leads to under phosphorylation of Rb protein. As a consequence, the cells are removed from cycling and the number of cells in G1 increases while those in S and G2 decrease, compared with control, untreated ones. This response of cell cycle kinetics is quite similar to those reported for other agents known to cause a G1, block e.g. troglitazone. Ultimately, proliferation ceases within one to three days. […] This decreased rate persists even after the tetrapyrrole is no longer added to the incubation medium. Finally, twelve days after its removal, proliferation resumes at a brisker rate dividing every 41 hrs. This rate is still slower than that of the control cells that double every 18 hrs. […] In contrast, cellular survival or proliferation is not affected by amounts lower than 10^−7 M biliverdin (not shown).

[4] = test system: Normal Fibroblast (3T3-L1 fibroblasts); assay: Cellular triacyl glycerol (TAG) content, normal fibroblast; assay type: cell-based; conditions: 3T3-L1 fibroblasts with insulin
Protocol: Expression of differentiation markers. Carcinoembryogenic antigen in cell supernatants collected each three days was assayed by standard ELISA determinations using an IMX assay for quantitative measurement of the antigen. Cellular triacyl glycerol content was measured spectrophotometrically by enzymatic hydrolysis and analysis of the amount of glycerol released using a standard assay, Triglyceride (INT) 10 (Sigma Diagnostics). […] The fluorescence is detected at 450 nm with an excitation of 365 nm, using a Jobin Ivon-Spex Fluoro Max-2 fluorimeter. The alkaline phosphatase activity detected was expressed in units of μmol/mg protein/min. These compounds also affect the timing for the fat accumulation. After 9 days of incubation with insulin and bovine pituitary extract, but without biliverdin, the fat droplets in the cells are small and scattered diffusely throughout the cell. These globules continue to enlarge to fill most of the cytoplasmic space by day 14. In contrast, by day 7 the cells incubated in the presence of biliverdin already contain large, grouped and prominent droplets. While the triacyl glycerol content increases in both HT 29 and liposarcoma cells, the fat droplets in HT 29 cells are smaller than those that fill the cytoplasm of the liposarcoma cells. 3T3-L1 fibroblasts differentiate into adipocytes in the presence of insulin (Table VII). In the absence of biliverdin, this hormone increases the triacylglycerol content of 3T3-L1 fibroblasts by 3-fold relative to control. When biliverdin is added, a progressively greater content of triacyl glycerol is achieved at day 9. The increase is dependent on the biliverdin concentration. At the highest concentration used, 4×10^−7 M, there is a 5.8-fold increase of triacyl glycerol content over that of the undifferentiated fibroblasts (Table VII). This almost doubles the amount in the cells incubated with differentiation medium alone and is nearly as high as observed with troglitazone. At a lower biliverdin concentration, 10^−8 M, there is a 3.5-fold increase compared to control values. Remarkably, the amounts of biliverdin required to achieve the effects on proliferation, cell cycle and differentiation marker up-regulation, i.e. 10^−7-10^−06 M, are the same as those needed to re-establish the capacity of embryos depleted of the tetrapyrrole by treatment with UV-light to form a dorsal axis.

[5] = test system: B-lymphoblast (LB) cells; assay: Proliferation of B-lymphoblast cells; assay type: cell-based, mouse
[6] = test system: T-lymphoblast (LT) cells; assay: Proliferation of T-lymphoblast cells; assay type: cell-based, mouse

SMILES: C=CC1=C(C)/C(=C/C2=NC(=C\c3[nH]c(/C=C4\NC(=O)C(C)=C4C=C)c(C)c3CCC(=O)O)/C(CCC(=O)O)=C2C)NC1=O [Biliverdin, biliverdin IXα]
- amount that does not affect cellular survival or proliferation ([1]; HT29): lower than 10^−7 M
- concentration that causes apoptosis ([1]; HT29): ≥ 1000 nM
- concentration with no effect on survival or proliferation ([1]; HT29): below 0.1 μM
- Effect on cellular proliferation and viability ([1]; HT29, 0.01 μM): None
- Effect on cellular proliferation and viability ([1]; HT29, 0.1 μM): Proliferative Arrest
- Effect on cellular proliferation and viability ([1]; HT29, 0.30 μM): Proliferative Arrest
- Effect on cellular proliferation and viability ([1]; HT29, 0.40 μM): Proliferative Arrest
- Effect on cellular proliferation and viability ([1]; HT29, 1.00 μM): Apoptosis
- effect on proliferation ([1]; HT29, 5 μM, associated decrease of cell numbers in first three days): arrests proliferation
- time until proliferative arrest ([1]; HT29, 0.1 to 0.4 μM): ≤ 72 h
- doubling time during exposure ([1]; HT29, 4×10^−7 M, next 35 days after arrest): 103 h
- time of exposure until proliferation is arrested ([1]; HT29, FIG. 9): ≤ 1 days
- proliferation rate after resumption, fold less than control ([1]; HT29, after end of exposure): 2-3 fold
- reduction of three-day cell number increase compared to controls ([1]; HT29, treated and released cells): five-fold reduction
- increase of cell number in a three-day period ([1]; HT29, treated and released cells, control about 15 times): 3.4 times
- proliferation rate after resumption, relative to control ([1]; HT29, treatment discontinued day 30, resumption twelve days later): 43%
- doubling time after removal of biliverdin ([1]; HT29, twelve days after removal, control 18 hrs): 41 h
- CEA secreted into the medium ([2]; HT 29, by days 9-12 of exposure, constitutive slightly below 3): over 80 ng/ml/10^6 cells
- overproduction of the differentiation marker CEA ([2]; HT 29, quiescent proliferative period days 3-40): > 25 fold
- cells in G2 ([3]; control 11): 7%
- cells in G1 ([3]; control 42): 63%
- cells in S ([3]; control 47): 30%
- increase of triacyl glycerol content over undifferentiated fibroblasts ([4]; biliverdin 4×10^−7 M, day 9): 5.8 fold
- increase of triacyl glycerol content compared to control values ([4]; biliverdin 10^−8 M): 3.5 fold
- time until proliferation ceases [5]: within one day
- time until cell division resumes at nearly the control rate ([5]; still exposed): 3 to 4 days
- time until proliferation ceases [6]: within one day
- time until cell division resumes at nearly the control rate ([6]; still exposed): 3 to 4 days

Reference: patent US6902881B2, “Compounds and methods for regulating cell differentiation” (priority 2000, dated 2005)
